Publication PMC8846605 (European journal of medicinal chemistry, 2021)

Columns and labels:
Kelly cells proteome = assay: Global quantitative proteomics in Kelly cells; assay type: cell-based, human; conditions: 1 μM, 5 hours, relative to DMSO
MCF7 cells = assay: CS-BLI cell viability assay, MCF7; assay type: cell-based
eIF4E = eIF4E (Homo sapiens, UniProt P06730); assay: eIF4E degradation in HEK293T cells by immunoblotting; assay type: cell-based; conditions: 0.1-10 μM for 24 h, and 1 μM for 0.5 h to 24 h
GB1-eIF4E = GB1-eIF4E (Homo sapiens, UniProt P06730); assay: Solution NMR titration; conditions: 15N-labelled GB1-eIF4E 100 μM, compound 50, 100 and 300 μM
[1] = target: eIF4E (GST-eIF4E) / fluorescein-labelled eIF4G peptide (Homo sapiens, UniProt P06730); assay: Fluorescence polarization assay for displacement of eIF4G peptide from eIF4E; assay type: binding; conditions: three concentrations: 33, 100 and 300 μM
Cereblon (CRBN) = Cereblon (CRBN) (Homo sapiens, UniProt Q96SW2); assay: Cellular Cereblon engagement assay; assay type: cell-based
Chain of Cereblon (CRBN) (Q96SW2 whole entry): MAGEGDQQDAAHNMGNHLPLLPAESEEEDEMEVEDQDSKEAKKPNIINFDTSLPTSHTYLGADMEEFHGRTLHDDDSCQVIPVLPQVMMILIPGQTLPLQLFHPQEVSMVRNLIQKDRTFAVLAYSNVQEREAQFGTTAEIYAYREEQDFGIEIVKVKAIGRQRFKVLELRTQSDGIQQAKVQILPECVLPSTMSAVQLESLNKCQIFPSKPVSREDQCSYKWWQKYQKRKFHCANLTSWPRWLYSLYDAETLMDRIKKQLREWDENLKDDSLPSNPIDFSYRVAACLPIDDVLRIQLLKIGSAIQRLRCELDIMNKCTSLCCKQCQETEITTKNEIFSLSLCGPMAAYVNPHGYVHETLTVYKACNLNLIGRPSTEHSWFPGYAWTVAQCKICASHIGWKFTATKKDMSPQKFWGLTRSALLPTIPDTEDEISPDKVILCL

Chain of eIF4E (P06730 whole entry): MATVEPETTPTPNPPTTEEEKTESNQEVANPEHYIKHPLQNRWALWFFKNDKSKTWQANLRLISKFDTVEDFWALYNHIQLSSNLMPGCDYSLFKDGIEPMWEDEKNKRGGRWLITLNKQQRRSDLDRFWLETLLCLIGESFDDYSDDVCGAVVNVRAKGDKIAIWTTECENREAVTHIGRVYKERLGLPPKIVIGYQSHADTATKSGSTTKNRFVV
Chain of GB1-eIF4E (P06730 whole entry): as above
Chain of eIF4E (GST-eIF4E) / fluorescein-labelled eIF4G peptide (P06730 whole entry): as above

SMILES: C/C(=N\Nc1nc(-c2ccc(-c3ccccc3)cc2)cs1)C(=O)NCCCCNc1cccc2c1C(=O)N(C1CCC(=O)NC1=O)C2=O (centres unmarked) [d4E-2]
- change in protein expression, IMiD neo-substrates (Kelly cells proteome): downregulation of C2H2 zinc finger targets, SALL4, ZNF692 and ZNF827

SMILES: O=C(O)/C(Cc1ccccc1[N+](=O)[O-])=N\Nc1nc(-c2ccc(-c3ccccc3)cc2)cs1 [i4EG-BiP]
- decrease in viability (IC50) at 72 h as compared to 24 h (MCF7 cells): more than 3 fold

SMILES: C/C(=N\Nc1nc(-c2ccc(-c3ccccc3)cc2)cs1)C(=O)NCCNc1cccc2c1C(=O)N(C1CCC(=O)NC1=O)C2=O (centres unmarked) [d4E-4]
- degradation of eIF4E by immunoblotting (eIF4E): neither experiment showed significant degradation of eIF4E
- chemical shift perturbations (CSPs) on titration (GB1-eIF4E): Significant CSPs were observed in both cases at the binding interface

SMILES: O=C(COc1cccc2c1C(=O)N(C1CCC(=O)NC1=O)C2=O)NCCCCNC(=O)Cc1sc(N/N=C(\Cc2ccccc2[N+](=O)[O-])C(=O)O)nc1-c1ccc(Cl)c(Cl)c1 (centres unmarked) [d4E-1]
- displacement of the 4G peptide compared with 4EGI-1 [1]: displaced the 4G peptide in a similar manner

SMILES: C/C(=N\Nc1nc(-c2ccc(Cl)c(Cl)c2)c(CC(=O)NCCNc2cccc3c2C(=O)N(C2CCC(=O)NC2=O)C3=O)s1)C(=O)OCOC(=O)C(C)(C)C (centres unmarked) [d4E-6]
- degradation of eIF4E by immunoblotting (eIF4E): neither experiment showed significant degradation of eIF4E

SMILES: O=C1CCC(N2C(=O)c3cccc(NCCCCNC(=O)/C(=N\Nc4nc(-c5ccc(-c6ccccc6)cc5)cs4)c4ccccc4[N+](=O)[O-])c3C2=O)C(=O)N1 (centres unmarked) [d4E-3]
- fold less active than d4E-2 in cellular CRBN engagement (Cereblon (CRBN)): approximately 8 fold

SMILES: O=C(O)C(Cc1ccccc1[N+](=O)[O-])=NNc1nc(-c2ccc(Cl)c(Cl)c2)cs1 [4EGI-1, reference compound]
- decrease in viability (IC50) at 72 h as compared to 24 h (MCF7 cells): 2 fold
